Data as given in the NIST ThermoML archive (doi:10.1016/j.jct.2017.06.001).

Tests used:
[1] = 100 kPa, Liquid; for mass density: Vibrating tube method; for speed of sound: Frequency=5 MHz, Pulse-echo method
[2] = xn = mol fraction of the nth substance listed; details: 100 kPa, Liquid, x2 = 0; for mass density: Vibrating tube method; for speed of sound: Frequency=5 MHz, Pulse-echo method

OCCCCCO [1,5-pentanediol]
[1]
Details	mass density [kg/m3]	speed of sound [m/s]
278.15 K	998	–
283.15 K	995	–
288.15 K	992.2	1616.4
293.15 K	989.3	1605
298.15 K	986.5	1593.8
303.15 K	983.6	1582.5
308.15 K	980.7	1571.3
313.15 K	977.8	1560.2
318.15 K	974.9	1549
323.15 K	971.9	–
328.15 K	969	–
333.15 K	965.9	–

O [water] + OCCCCCO
[2]
Details	mass density [kg/m3]	speed of sound [m/s]
278.15 K	999.97	–
283.15 K	999.7	–
308.15 K	–	1519.2
313.15 K	–	1528.8
318.15 K	–	1536.7
323.15 K	988.03	–
328.15 K	985.68	–
333.15 K	983.19	–
